From ChEMBL document CHEMBL5523729, “Development of Degraders of Cyclin-Dependent Kinases 4 and 6 Based on Rational Drug Design” (J Med Chem, 2024)
pIC50: −log10 of the molar value. Activity calls are given as the source filed them. The calls are words filed in the database; no cut-off is given here.

Key:
[1] = biological target: T1, Protein cereblon/Cyclin-dependent kinase 4 (Homo sapiens, UniProt P11802+Q96SW2); assay: PROTAC activity at CDK4/CRBN in human Jurkat cells assessed as maximal protein degradation by Western blot analysis relative to control; assay type: cell-based
Target sequence in this assay (P11802 2-303 limits assumed): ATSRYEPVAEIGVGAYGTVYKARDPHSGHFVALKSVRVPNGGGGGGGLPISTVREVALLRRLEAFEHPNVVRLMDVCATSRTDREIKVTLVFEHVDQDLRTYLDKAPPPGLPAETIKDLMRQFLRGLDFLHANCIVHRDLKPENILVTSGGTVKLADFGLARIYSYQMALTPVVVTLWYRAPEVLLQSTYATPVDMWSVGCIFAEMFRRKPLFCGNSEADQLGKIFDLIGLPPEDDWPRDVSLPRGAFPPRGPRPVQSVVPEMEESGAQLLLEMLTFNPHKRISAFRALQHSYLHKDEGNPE
Target sequence in this assay (Q96SW2 whole entry partner): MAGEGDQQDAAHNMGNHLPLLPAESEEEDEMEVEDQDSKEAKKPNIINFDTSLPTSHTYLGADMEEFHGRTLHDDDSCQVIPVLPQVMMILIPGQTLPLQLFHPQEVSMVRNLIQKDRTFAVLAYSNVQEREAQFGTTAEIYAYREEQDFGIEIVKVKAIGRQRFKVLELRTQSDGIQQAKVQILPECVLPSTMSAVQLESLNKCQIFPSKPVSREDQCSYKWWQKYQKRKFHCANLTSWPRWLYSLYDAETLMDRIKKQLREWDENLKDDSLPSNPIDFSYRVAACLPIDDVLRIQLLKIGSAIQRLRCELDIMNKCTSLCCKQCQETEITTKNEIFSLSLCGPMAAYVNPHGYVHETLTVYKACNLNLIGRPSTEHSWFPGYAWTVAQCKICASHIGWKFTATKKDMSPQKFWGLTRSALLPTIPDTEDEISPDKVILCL

[2] = biological target: T2, Protein cereblon/Cyclin-dependent kinase 6 (Homo sapiens, UniProt Q00534+Q96SW2); assay: PROTAC activity at CDK6/CRBN in human Jurkat cells assessed as protein degradation by Western blot analysis; assay type: cell-based
Target sequence in this assay (Q00534 whole entry): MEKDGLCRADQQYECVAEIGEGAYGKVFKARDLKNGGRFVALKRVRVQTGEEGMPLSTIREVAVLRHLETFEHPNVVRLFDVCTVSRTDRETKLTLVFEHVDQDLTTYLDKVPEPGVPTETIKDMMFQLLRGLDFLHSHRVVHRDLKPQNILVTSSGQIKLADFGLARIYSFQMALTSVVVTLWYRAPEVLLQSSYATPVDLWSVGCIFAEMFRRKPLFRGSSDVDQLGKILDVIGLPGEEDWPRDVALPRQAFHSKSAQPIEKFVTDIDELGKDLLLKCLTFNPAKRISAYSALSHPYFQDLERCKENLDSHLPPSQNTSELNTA
Target sequence in this assay (Q96SW2 whole entry): as the sequence (Q96SW2 whole entry partner) above

[3] = biological target: T2, Protein cereblon/Cyclin-dependent kinase 6; assay: PROTAC activity at CDK6/CRBN in human Jurkat cells assessed as maximal protein degradation by Western blot analysis relative to control; assay type: cell-based
Target sequence in this assay (Q00534 whole entry, looked up): as the sequence (Q00534 whole entry) above
Target sequence in this assay (Q96SW2 whole entry, looked up): as the sequence (Q96SW2 whole entry partner) above

[4] = biological target: T1, Protein cereblon/Cyclin-dependent kinase 4; assay: PROTAC activity at CDK4/CRBN in human Jurkat cells assessed as protein degradation by Western blot analysis; assay type: cell-based
Target sequence in this assay (P11802 whole entry): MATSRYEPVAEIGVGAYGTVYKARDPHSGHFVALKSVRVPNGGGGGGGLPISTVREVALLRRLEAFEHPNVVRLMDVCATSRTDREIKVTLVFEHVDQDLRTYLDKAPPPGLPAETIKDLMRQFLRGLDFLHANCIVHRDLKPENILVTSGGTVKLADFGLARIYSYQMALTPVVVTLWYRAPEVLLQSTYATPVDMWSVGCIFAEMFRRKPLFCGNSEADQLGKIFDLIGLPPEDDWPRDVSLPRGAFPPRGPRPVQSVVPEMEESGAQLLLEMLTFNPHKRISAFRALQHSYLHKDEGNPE
Target sequence in this assay (Q96SW2 whole entry): as the sequence (Q96SW2 whole entry partner) above

Jurkat [5] = assay: Anti-proliferative activity against human Jurkat cells assessed as cell growth inhibition measured after 72 hrs by CCK8 assay; assay type: functional, cell-based
Jurkat [6] = assay: Anti-tumor activity against human Jurkat cells assessed as increase in cleaved caspase-3 level by Western blot analysis; assay type: functional, cell-based; details: dose 1-1000 nM
[7] = biological target: T1, Protein cereblon/Cyclin-dependent kinase 4; assay: PROTAC activity at CDK4/CRBN in human Jurkat cells assessed as protein degradation at 1 uM after 12 hrs by Western blot analysis; assay type: cell-based
Target sequence in this assay (P11802 2-303 limits assumed): as the sequence (P11802 2-303 limits assumed) above
Target sequence in this assay (Q96SW2 whole entry partner): as the sequence (Q96SW2 whole entry partner) above

[8] = biological target: Protein cereblon/Cyclin-dependent kinase 1 (Homo sapiens) (UniProt P06493+Q96SW2); assay: PROTAC activity at CDK1/CRBN in human Jurkat cells assessed as protein degradation at 1 uM measured after 24 hrs by Western blot analysis; assay type: cell-based
Sequence of Protein cereblon/Cyclin-dependent kinase 1 (Homo sapiens) (P06493 whole entry, looked up): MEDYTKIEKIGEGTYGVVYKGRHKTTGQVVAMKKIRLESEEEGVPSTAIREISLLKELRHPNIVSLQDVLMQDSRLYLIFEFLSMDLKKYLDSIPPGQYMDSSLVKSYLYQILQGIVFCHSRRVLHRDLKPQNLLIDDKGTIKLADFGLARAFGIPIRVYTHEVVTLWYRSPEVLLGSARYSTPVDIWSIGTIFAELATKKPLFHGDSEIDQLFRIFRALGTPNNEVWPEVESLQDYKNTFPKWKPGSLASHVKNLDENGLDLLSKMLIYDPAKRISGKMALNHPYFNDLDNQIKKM
Sequence of Protein cereblon/Cyclin-dependent kinase 1 (Homo sapiens) (Q96SW2 whole entry, looked up): as the sequence (Q96SW2 whole entry partner) above

[9] = biological target: T2, Protein cereblon/Cyclin-dependent kinase 6; assay: PROTAC activity at CDK6/CRBN in human Jurkat cells assessed as protein degradation at 1 to 1000 nM by Western blot analysis; assay type: cell-based; details: dose 1-1000 nM, time 3-24 hrs, TDE = time-dependent effect
Target sequence in this assay (Q00534 whole entry, looked up): as the sequence (Q00534 whole entry) above
Target sequence in this assay (Q96SW2 whole entry, looked up): as the sequence (Q96SW2 whole entry partner) above

[10] = biological target: T1, Protein cereblon/Cyclin-dependent kinase 4; assay: PROTAC activity at CDK4/CRBN in human Jurkat cells assessed as protein degradation at 1 uM measured after 24 hrs by Western blot analysis; assay type: cell-based
Target sequence in this assay (P11802 2-303 limits assumed): as the sequence (P11802 2-303 limits assumed) above
Target sequence in this assay (Q96SW2 whole entry partner): as the sequence (Q96SW2 whole entry partner) above

[11] = biological target: T1, Protein cereblon/Cyclin-dependent kinase 4; assay: PROTAC activity at CDK4/CRBN in human Jurkat cells assessed as protein degradation after 3 to 24 hrs by Western blot analysis; assay type: cell-based; details: dose 1-1000 nM, time 3-24 hrs
Target sequence in this assay (P11802 2-303 limits assumed): as the sequence (P11802 2-303 limits assumed) above
Target sequence in this assay (Q96SW2 whole entry partner): as the sequence (Q96SW2 whole entry partner) above

[12] = biological target: Protein cereblon/Cyclin-dependent kinase 7 (Homo sapiens) (UniProt P50613+Q96SW2); assay: PROTAC activity at CDK7/CRBN in human Jurkat cells assessed as protein degradation at 1 uM measured after 24 hrs by Western blot analysis; assay type: cell-based
Jurkat [13] = assay: Anti-tumor activity against human Jurkat cells assessed as suppression of p-RB (Ser780) at 1 uM by Western blot analysis; assay type: functional, cell-based
[14] = biological target: T2, Protein cereblon/Cyclin-dependent kinase 6; assay: PROTAC activity at CDK6/CRBN in human Jurkat cells assessed as protein degradation at 1 uM after 12 hrs by Western blot analysis; assay type: cell-based
Target sequence in this assay (Q00534 whole entry, looked up): as the sequence (Q00534 whole entry) above
Target sequence in this assay (Q96SW2 whole entry, looked up): as the sequence (Q96SW2 whole entry partner) above

[15] = biological target: T1, Protein cereblon/Cyclin-dependent kinase 4; assay: PROTAC activity at CDK4/CRBN in human Jurkat cells assessed as protein degradation at 1 to 1000 nM by Western blot analysis; assay type: cell-based; details: dose 1-1000 nM, time 3-24 hrs, TDE = time-dependent effect
Target sequence in this assay (P11802 2-303 limits assumed): as the sequence (P11802 2-303 limits assumed) above
Target sequence in this assay (Q96SW2 whole entry partner): as the sequence (Q96SW2 whole entry partner) above

[16] = biological target: Protein cereblon/Cyclin-dependent kinase 2 (Homo sapiens) (UniProt P24941+Q96SW2); assay: PROTAC activity at CDK2/CRBN in human Jurkat cells assessed as protein degradation at 1 uM measured after 24 hrs by Western blot analysis; assay type: cell-based
Jurkat [17] = assay: Induction of apoptosis in human Jurkat cells assessed as apoptotic cells measured after 24 hrs by Annexin V-FITC/PI staining based analysis; assay type: functional, cell-based; details: dose 0.1-1 µM
[18] = biological target: Protein cereblon/Cyclin-dependent kinase 5 (Homo sapiens) (UniProt Q00535+Q96SW2); assay: PROTAC activity at CDK5/CRBN in human Jurkat cells assessed as protein degradation at 1 uM measured after 24 hrs by Western blot analysis; assay type: cell-based
Jurkat [19] = assay: Cell cycle arrest in human Jurkat cells assessed as accumulation of cells at G1 phase measured after 24 hrs by flow cytometry; assay type: functional, cell-based; details: dose 0.1-1 µM
[20] = biological target: T2, Protein cereblon/Cyclin-dependent kinase 6; assay: PROTAC activity at CDK6/CRBN in human Jurkat cells assessed as protein degradation after 3 to 24 hrs by Western blot analysis; assay type: cell-based; details: dose 1-1000 nM, time 3-24 hrs
Target sequence in this assay (Q00534 whole entry, looked up): as the sequence (Q00534 whole entry) above
Target sequence in this assay (Q96SW2 whole entry, looked up): as the sequence (Q96SW2 whole entry partner) above

[21] = biological target: Protein cereblon/Cyclin-dependent kinase 8 (Homo sapiens) (UniProt P49336+Q96SW2); assay: PROTAC activity at CDK8/CRBN in human Jurkat cells assessed as protein degradation at 1 uM measured after 24 hrs by Western blot analysis; assay type: cell-based
Jurkat [22] = assay: Anti-tumor activity against human Jurkat cells assessed as increase in cleaved PARP level by Western blot analysis; assay type: functional, cell-based; details: dose 1-1000 nM
[23] = biological target: Cyclin-dependent kinase 6 (Homo sapiens, UniProt Q00534); assay: Inhibition of CDK6 (unknown origin)
Sequence of Cyclin-dependent kinase 6 (Q00534 whole entry): as the sequence (Q00534 whole entry) above

[24] = biological target: Cyclin-dependent kinase 4 (Homo sapiens, UniProt P11802); assay: Inhibition of CDK4 (unknown origin)

Row | SMILES | Emax [1] [%] | DC50 [2] [nM] | Emax [3] [%] | DC50 [4] [nM] | other results
1 | O=C1CCC(N2C(=O)c3cccc(NC(=O)CCCCCCN4CCN(c5ccc(Nc6ncc7ncc(=O)n(C8CCCC8)c7n6)cc5)CC4)c3C2=O)C(=O)N1 (configuration not stated) | 41 | 6.6 | 95 | > 1000 | 
2 | CC(=O)c1c(C)c2cnc(Nc3ccc(N4CCNCC4)cn3)nc2n(C2CCCC2)c1=O [PALBOCICLIB] |  |  |  |  | pIC50 (Jurkat [5]): 5.83
3 | O=C1CCC(N2C(=O)c3cccc(NCCOCCOCCN4CCN(c5ccc(Nc6ncc7ncc(=O)n(C8CCCC8)c7n6)cc5)CC4)c3C2=O)C(=O)N1 (configuration not stated) | 53 | 5.3 | 94 | 557 | 
4 | O=C1CCC(N2C(=O)c3cccc(NC(=O)CCCCCCC(=O)N4CCN(c5ccc(Nc6ncc7ncc(=O)n(C8CCCC8)c7n6)cc5)CC4)c3C2=O)C(=O)N1 (configuration not stated) | 60 | 43.3 | 92 | 434 | 
5 | O=C(CCCCN1CCN(c2ccc(Nc3ncc4ncc(=O)n(C5CCCC5)c4n3)cc2)CC1)NCCNc1cccc2c1C(=O)N(C1CCC(=O)NC1=O)C2=O (configuration not stated) | 100 | 2.5 | 96 | 10.5 | Activity (Jurkat [6]): Dose-Dependent Effect; Activity [7]: 100%; Activity [8]: inactive; Activity [9]: Tde; Activity [10]: inactive; Activity [11]: Dose-Dependent Effect; Activity [12]: inactive; Activity (Jurkat [13]): Active; Activity [14]: 100%; Activity [15]: Tde; Activity [16]: inactive; Activity (Jurkat [17]): Dose-Dependent Effect; Activity [18]: inactive; Activity (Jurkat [19]): Dose-Dependent Effect; Activity [20]: Dose-Dependent Effect; Activity [21]: inactive; pIC50 (Jurkat [5]): 6.74; Activity (Jurkat [22]): Dose-Dependent Effect
6 | O=C1CCC(N2C(=O)c3cccc(NC(=O)CCCCCn4cc(CN5CCN(c6ccc(Nc7ncc8ncc(=O)n(C9CCCC9)c8n7)cc6)CC5)nn4)c3C2=O)C(=O)N1 (configuration not stated) | 42 | 16.3 | 95 | > 1000 | 
7 | O=c1cnc2cnc(Nc3ccc(N4CCNCC4)cc3)nc2n1C1CCCC1 |  |  |  |  | pIC50 [23]: 7.06; pIC50 [24]: 8.11; pIC50 (Jurkat [5]): 5.83
8 | O=C(CN1CCN(c2ccc(Nc3ncc4ncc(=O)n(C5CCCC5)c4n3)cc2)CC1)NCCCCNc1cccc2c1C(=O)N(C1CCC(=O)NC1=O)C2=O (configuration not stated) | 14 | > 1000 | 40 | > 1000 | 
9 | O=C1CCC(N2C(=O)c3ccc(N4CCN(C(=O)CN5CCN(c6ccc(Nc7ncc8ncc(=O)n(C9CCCC9)c8n7)cc6)CC5)CC4)cc3C2=O)C(=O)N1 (configuration not stated) | 75 | 3.9 | 86 | 9.8 | 
10 | O=C1CCC(N2C(=O)c3cccc(NCCOCCN4CCN(c5ccc(Nc6ncc7ncc(=O)n(C8CCCC8)c7n6)cc5)CC4)c3C2=O)C(=O)N1 (configuration not stated) | 60 | 93 | 91 | 162 | 
11 | O=C1CCC(N2C(=O)c3ccc(N4CCN(CC5CCN(C(=O)CN6CCN(c7ccc(Nc8ncc9ncc(=O)n(C%10CCCC%10)c9n8)cc7)CC6)CC5)CC4)cc3C2=O)C(=O)N1 (configuration not stated) | 68 | 2.3 | 90 | 138 | 
12 | O=C1CCC(N2C(=O)c3cccc(NC(=O)CCCCCN4CCN(c5ccc(Nc6ncc7ncc(=O)n(C8CCCC8)c7n6)cc5)CC4)c3C2=O)C(=O)N1 (configuration not stated) | 95 | 58 | 85 | 14.9 | 
